Test results reported in patent US20180071354A1, “SELECTIVE BREEDING METHOD OF ANTITUMOR/ANTICANCER CAMELLIA SINENSIS STRAIN, AND TEA PRODUCT OF SUCH STRAIN” (FUJIAN AGRICULTURE AND FORESTRY UNIVERSITY, priority 2015, published 2018).

Legend:
[1] = system: human lung cancer cell line A549; test: In vitro antitumor/anticancer testing (CCK-8), A549; format: cell-based; conditions: 48 h
Protocol: Each of Tea Product 1 and Conventional Tea Product obtained in section A of this example was used to prepare test tea samples according to the method described below. A proper amount of the respective tea product was added into sterile water to prepare a stock solution with a concentration of 100 mg/mL, followed by using a membrane filter with a pore size of 0.22 μm to conduct vacuum filtration and sterilization. The resulting stock solution was diluted with a respective complete medium shown in Table 3 below to form test tea samples with different concentrations. In other words, the thus obtained test tea samples to be used for treating a respective cancer/tumor cell line shown in Table 3 were prepared using the same complete medium as that for the respective cancer/tumor cell line. […] Specifically, each of the aforesaid commercially available agents was subjected to the method described below to prepare comparative test samples. A proper amount of a respective commercially available agent was dissolved in phosphate-buffered saline (PBS) to prepare a stock solution with a concentration of 5 mg/mL, followed by using a membrane filter with a pore size of 0.22 μm to conduct vacuum filtration and sterilization. The resulting stock solution was diluted with a respective complete medium shown in Table 3 below to form comparative test samples with different concentrations. To be specific, the comparative test samples prepared from the respective commercially available agent have the concentrations shown in Table 2 below. The thus obtained comparative test samples to be used for treating a respective cancer/tumor cell line shown in Table 3 were prepared using the same complete medium as that for the respective cancer/tumor cell line. […] The cultivation of each cancer/tumor cell line is described as follows. […] Afterwards, a cell suspension having a cell density of 1.0×10^4 cells/mL was prepared. […] As experimental groups, the tumor/cancer cells of each cell line were treated with the test tea samples prepared from one or more of the tea products and the comparative test samples prepared from one or more of the commercially available agents as obtained in section B of this example (for more detailed information about the tea product(s) and the commercially available product (s) used to treat each cell line, please see Table 4 below). To be specific, 6 to 10 test tea samples prepared from the same tea product and having different concentrations, as well as 6 to 10 comparative test samples prepared from the same commercially available agent and having different concentrations, were utilized to treat the tumor/cancer cells of each cell line. For each experimental group, 6 repetitions of tumor/cancer treatment were performed. For the control group, 100 μL of PBS was added to a well containing the medium and the cancer/tumor cells of the respective cell line. For the blank group, 100 μL of PBS was added to a well containing a complete medium the same as that used for cultivation of the cancer/tumor cells of the respective cell line. After the treatment described above, cultivation was conducted in an incubator (37° C., 100% relative humidity, 5% CO2) for 48 hours. Subsequently, the liquid containing the medium and the sample in the well was removed, and a respective complete medium (shown in Table 3 above) containing 10% CCK-8 (Cell Counting Kit-8)(Dojindo Molecular Technologies, Inc., Cat. No. CK04-13) was added. Cultivation was performed in an incubator (37° C.) for 2 to 4 hours, followed by gently shaking.

[2] = system: human prostate cancer cell line PC-3; test: In vitro antitumor/anticancer testing (CCK-8), PC-3; format: cell-based; conditions: 48 h
Protocol: Each of Tea Product 1 and Conventional Tea Product obtained in section A of this example was used to prepare test tea samples according to the method described below. A proper amount of the respective tea product was added into sterile water to prepare a stock solution with a concentration of 100 mg/mL, followed by using a membrane filter with a pore size of 0.22 μm to conduct vacuum filtration and sterilization. The resulting stock solution was diluted with a respective complete medium shown in Table 3 below to form test tea samples with different concentrations. In other words, the thus obtained test tea samples to be used for treating a respective cancer/tumor cell line shown in Table 3 were prepared using the same complete medium as that for the respective cancer/tumor cell line.
Specifically, each of the aforesaid commercially available agents was subjected to the method described below to prepare comparative test samples. A proper amount of a respective commercially available agent was dissolved in phosphate-buffered saline (PBS) to prepare a stock solution with a concentration of 5 mg/mL, followed by using a membrane filter with a pore size of 0.22 μm to conduct vacuum filtration and sterilization. The resulting stock solution was diluted with a respective complete medium shown in Table 3 below to form comparative test samples with different concentrations. To be specific, the comparative test samples prepared from the respective commercially available agent have the concentrations shown in Table 2 below. The thus obtained comparative test samples to be used for treating a respective cancer/tumor cell line shown in Table 3 were prepared using the same complete medium as that for the respective cancer/tumor cell line.
The following cancer/tumor cells purchased from Chinese Academy of Sciences, Shanghai Institutes for Biological Sciences, Institute of Biochemistry and Cell Biology were used for in vitro antitumor/anticancer testing: human liver cancer cell line HepG2, human ovarian cancer cell line SK-OV-3, human cervical cancer cell line Hela, human lung cancer cell line A549, human glioblastoma cell line U-87MG, human mammary gland/duct cancer cell line BT-474, human prostate cancer cell line PC-3, human leukemia cell line HL-60, human gastric cancer cell line SMMC-7721, human colon cancer cell line HCT-116, human squamous cell carcinoma cell line A431, human leukemia cell line K562, human pancreatic cancer cell line PANC-1, and human gastric cancer cell line BGC-823.
The cultivation of each cancer/tumor cell line is described as follows. The cancer/tumor cancer cells were cultivated in the respective complete medium supplemented with 100 μg/mL penicillin and 100 μg/mL streptomycin in an incubator (37° C., 100% relative humidity, 5% CO2). When adherent cancer/tumor cells reached 80% confluence during the log-phase, cell detachment was conducted using 0.6 mL of 0.3% trypsin. Afterwards, a cell suspension having a cell density of 1.0×10^4 cells/mL was prepared. 100 μL of the cell suspension (i.e. 1000 cancer/tumor cells) was added into wells of a 96-well plate (Cat. No. 3599, Corning Costar), followed by cultivation in an incubator (37° C., 100% relative humidity, 5% CO2) for 24 hours.
As experimental groups, the tumor/cancer cells of each cell line were treated with the test tea samples prepared from one or more of the tea products and the comparative test samples prepared from one or more of the commercially available agents as obtained in section B of this example (for more detailed information about the tea product(s) and the commercially available product (s) used to treat each cell line, please see Table 4 below). To be specific, 6 to 10 test tea samples prepared from the same tea product and having different concentrations, as well as 6 to 10 comparative test samples prepared from the same commercially available agent and having different concentrations, were utilized to treat the tumor/cancer cells of each cell line. […]

O=C(O[C@@H]1Cc2c(O)cc(O)cc2O[C@@H]1c1cc(O)c(O)c(O)c1)c1cc(O)c(O)c(O)c1 [EGCG monomer, epigallocatechin gallate]
Percent growth inhibition ([1]; 0.625 μg/mL): 6.69%
Percent growth inhibition ([1]; 1.25 μg/mL): 5.92%
Percent growth inhibition ([1]; 2.5 μg/mL): 7.35%
Percent growth inhibition ([1]; 5 μg/mL): 6.76%
Percent growth inhibition ([1]; 10 μg/mL): 9.62%
Percent growth inhibition ([1]; 20 μg/mL): 23.21%
Percent growth inhibition ([1]; 40 μg/mL): 35.39%
Percent growth inhibition ([1]; 80 μg/mL): 60.18%
IC50 ([1]; A549): IC50 (μg/mL) = 59.74
Percent growth inhibition ([2]; 2.5 μg/mL): 16.69%
Percent growth inhibition ([2]; 7 μg/mL): 19.10%
Percent growth inhibition ([2]; 10 μg/mL): 19.64%
Percent growth inhibition ([2]; 20 μg/mL): 26.03%
Percent growth inhibition ([2]; 40 μg/mL): 40.11%
Percent growth inhibition ([2]; 80 μg/mL): 74.43%
Percent growth inhibition ([2]; 160 μg/mL): 86.71%
Percent growth inhibition ([2]; 320 μg/mL): 96.31%
Percent growth inhibition ([2]; 640 μg/mL): 92.53%
IC50 ([2]; PC-3): IC50 (μg/mL) = 39.51
